The values below come from patent US9102637B2, “Bicyclic thiazole compounds” (CARNA BIOSCIENCES INC., priority 2013, dated 2015).

human TNIK (N-terminal segment, TNIK_N, residues 1-314), sequence (Q9UKE5 1-314): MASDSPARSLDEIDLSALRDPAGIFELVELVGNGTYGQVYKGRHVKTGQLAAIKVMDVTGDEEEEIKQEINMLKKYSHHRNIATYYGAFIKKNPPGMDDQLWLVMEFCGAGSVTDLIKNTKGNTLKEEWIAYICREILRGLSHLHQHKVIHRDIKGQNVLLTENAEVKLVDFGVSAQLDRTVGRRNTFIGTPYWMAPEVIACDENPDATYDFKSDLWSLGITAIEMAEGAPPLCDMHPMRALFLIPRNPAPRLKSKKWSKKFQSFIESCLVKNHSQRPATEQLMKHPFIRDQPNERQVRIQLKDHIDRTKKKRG

The assay concerns the target human TNIK (N-terminal segment, TNIK_N, residues 1-314) (Homo sapiens (Human), UniProt Q9UKE5). As to the kind of experiment: TNIK kinase assay (mobility shift). In kind it is biochemical. Conditions: TNIK_N kinase activity, 25 μM ATP, 1 h at room temperature. The text has this:
Preparation of Recombinant Human TNIK (N-Terminal Segment):
A cDNA encoding the N-terminal segment (TNIK_N, residues 1-314) containing the kinase domain of human TNIK (NM_015028.1) was amplified from cDNA mixture synthesized from human tissue (Biochain) by PCR using the following primers.
The cDNA was subcloned into baculovirus transfer vector pFastBac_GSTb that includes protease cleavage site and glutathione S-transferase purification tag (GST-tag). The plasmid was purified and the insertion of the pFastBac_GSTb-TNIK_N was confirmed by DNA sequencing. Then E. coli DH10Bac competent cells were transformed with the plasmid to prepare the recombinant bacmid according to the instructions for the Bac-to-Bac™ baculovirus expression systems (Invitrogen). The Sf9 cells were transfected with the recombinant bacmid containing pFastBac_GSTb-TNIK_N using Cellfectin Reagent (Invitrogen) in SF-9001I serum free media (Invitrogen). The viral supernatant was collected from the medium 72 h after transfection. The virus was amplified three times by infecting actively growing Sf9 or Sf21 cells in Grace's insect media (Invitrogen) supplemented with 10% FCS and an antibiotic-antimycotic reagent (Invitrogen) for 72 h at 27° C. in T-flask or roller bottles. The titer of amplified TNIK_N virus was estimated at 2.36×10^8 pfu/ml by using BacPAK™ Baculovirus Rapid Titer kit (Clontech).
Log-phase Sf21 cells (2×10^6 cells/ml) in the Grace's insect media were infected with the recombinant baculovirus at MOI of 3.0 and incubated in roller bottles (250 ml media per bottle) for 72 h at 27° C., after which, the cells were collected by centrifugation, and the cell pellet washed with cold PBS and kept at −80° C. until purification. The following purification procedures were carried out at 4° C. The frozen cells were thawed on ice and lysed in lysis buffer (50 mM Tris-HCl, pH 7.5, 150 mM NaCl, 1% Nonidet P-40, 5 mM DTT, 0.5 mM EDTA, 0.5 mM EGTA) supplemented with 1 mM phenylmethansulfonylfluoride, 2 μg/ml leupeptin, 2 μg/ml aprotinin, 1 mM NaF, 100 μM sodium orthovanadate, and 1 μM cantharidin by sonication. The suspended lysate was cleared by centrifugation at 9000g for 20 min and the supernatant was incubated for 1 h with glutathione Sepharose beads (GE Healthcare). The beads were suspended in buffer-H (50 mM Tris-HCl, pH 7.5, 1 M NaCl, 1 mM DTT, 0.5 mM EDTA, 0.5 mM EGTA and 0.05% Brij35) and washed with buffer-H followed by buffer-L (50 mM Tris-HCl, pH 7.5, 150 mM NaCl, 1 mM DTT, 0.5 mM EDTA, 0.5 mM EGTA, 0.05% Brij35) in an Econo-pack column (BIO-RAD). The bound TNIK_N was eluted with elution buffer (50 mM Tris-HCl, pH 8.0, 150 mM NaCl, 1 mM DTT, 10% glycerol, 0.5 mM EDTA, 0.5 mM EGTA and 5 mM reduced glutathione). The eluted fractions were collected and determined the protein concentration by Bradford reagent (BIO-RAD). The TNIKN fractions were pooled and desalted using 10DG column (BIORAD) equilibrated with the storage buffer (50 mM Tris-HCl, pH 7.5, 150 mM NaCl, 1 mM DTT, 10% glycerol, 0.05% Brij35). The purified TNIKN was characterized by electrophoresis using 4-20% polyacrylamide gels and matrix-assisted laser desorption/ionization reflection time-of-flight (MALDI-TOF) mass spectrometry on a Voyager-DE RP MALDI/TOF (Applied Biosystems). TNIK_N was confirmed by the molecular weight and. MASCOT Peptide Mass Fingerprint.
The kinase assays were conducted in a 20 μl volume using 384-well plates (Greiner). The reaction mixture consists of compound or vehicle (1% DMSO), 0.08 ng/μl TNIK_N, 1 μM FITC-labeled substrate peptides, including E-aminocaproic acid and 7 amino acids (described as SEQ ID NO.3 in “Kinase assay of TEST EXAMPLE 1” of WO 2010/064111(P.31)), 20 mM Hepes, pH 7.5, 0.01% Triton X-100, 5 mM MgCl2, 25 μM ATP and 2 mM DTT. As blank, TNIK N was excluded from the reaction mixture of vehicle (1% DMSO). […]
One may read the IC50 as the point on the concentration scale where inhibition reaches its midpoint. Consider `NC(=O)c1nc(Nc2ccc3ccccc3c2)sc1NC(=O)c1ccc(CN2CCCCC2CO)cc1` (centres unmarked) [Example 189, 5-(4-{[2-(hydroxymethyl)piperidin-1-yl]methyl}benzamido)-2-(naphthalen-2-ylamino)thiazole-4-carboxamide], for which the IC50 is 6.8 nM.

For `Cc1nccn1Cc1ccc(C(=O)Nc2sc(Nc3ccc4ccccc4c3)nc2C(N)=O)cc1` [Example 237, 5-{4-[(2-methyl-1H-imidazol-1-yl)methyl]benz-amido}-2-(naphthalen-2-ylamino)thiazole-4-carbox-amide], the IC50 amounted to 2.3 nM.

For the compound `C#CC(=O)Nc1sc(Nc2ccc3ccccc3c2)nc1C(N)=O` [Example 204, 2-(naphthalen-2-ylamino)-5-propiolamidothiazole-4-carboxamide], the concentration for half-maximal inhibition (IC50) amounted to 6 nM.

For the compound `NC(=O)c1nc(Nc2ccc3ccccc3c2)sc1NC(=O)c1ccc(Cn2cnc(CO)c2)cc1` [Example 246, 5-{4-[(4-(hydroxymethyl)-1H-imidazol-1-yl)methyl]benzamido}-2-(naphthalen-2-ylamino)thiazole-4-carboxamide], the IC50 amounted to 3.5 nM.

As to `CN1CCCN(Cc2ccc(C(=O)Nc3sc(Nc4ccc5ccccc5c4)nc3C(N)=O)cc2)CC1` [Example 190, 5-{4-[(4-methyl-1,4-diazepan-1-yl)methyl]benz-amido}-2-(naphthalen-2-ylamino)thiazole-4-carbox-amide], the IC50 amounted to 3.2 nM.

As for `NC(=O)c1nc(Nc2ccc3ccccc3c2)sc1NC(=O)c1ccc(N2CCN(CCO)CC2)cc1` [Example 187, 5-{4-[4-(2-hydroxyethyl)piperazin-1-yl]benzamido}-2-(naphthalen-2-ylamino)thiazole-4-carbox-amide], the IC50 was determined as 7.2 nM.

In the case of `NC(=O)c1nc(Nc2ccc3ccccc3c2)sc1NC(=O)C#CCCCn1ccnc1` [Example 234, 5-[6-(1H-imidazol-1-yl)hex-2-ynamido]-2-(naph-thalen-2-ylamino)thiazole-4-carboxamide], the concentration for half-maximal inhibition (IC50) worked out at 9.7 nM.

For the compound `CC(C)=CC(=O)Nc1sc(Nc2ccc3ccc(F)cc3c2)nc1C(N)=O` [Example 128, 2-[(7-fluoronaphthalen-2-yl)amino]-5-(3-methyl-but-2-enamido)thiazole-4-carboxamide], the concentration for half-maximal inhibition (IC50) turned out to be 7.2 nM.

For `NCCNc1ccc(C(=O)Nc2sc(Nc3ccc4ccccc4c3)nc2C(N)=O)cc1` [Example 188, 5-{4-[(2-aminoethyl)amino]benzamido}-2-(naph-thalen-2-ylamino)thiazole-4-carboxamide], the half-maximal inhibitory concentration (IC50) was found to be 8.4 nM.

Turning to `NC(=O)c1nc(Nc2ccc3ccccc3c2)sc1NC(=O)c1ccc(Cn2ccnc2)s1` [Example 251, 5-{5-[(1H-imidazol-1-yl)methyl]thiophene-2-carboxamido}-2-(naphthalen-2-ylamino)thiazole-4-carboxamide], the half-maximal inhibitory concentration (IC50) is 7.7 nM.

With `CC(O)CNc1ccc(C(=O)Nc2sc(Nc3ccc4ccccc4c3)nc2C(N)=O)cc1` (centres unmarked) [Example 30, 5-{4-[(2-hydroxypropyl)amino]benzamido}-2-(naphthalen-2-ylamino)thiazole-4-carboxamide], the IC50 stood at 10.7 nM.

As for `NC(=O)c1nc(Nc2ccc3ccccc3c2)sc1NC(=O)c1ccc(CN2CC[C@H](O)C2)cc1` [Example 203, (S)-5-{4-[(3-hydroxypyrrolidin-1-yl)methyl]benzamido}-2-(naphthalen-2-ylamino)thiazole-4-carboxamide], the IC50 was 5 nM.

In the case of `NC(=O)c1nc(Nc2ccc3ccccc3c2)sc1NC(=O)c1ccc(CN2CC[C@@H](O)C2)cc1` [Example 202, (R)-5-{4-[(3-hydroxypyrrolidin-1-yl)methyl]benzamido}-2-(naphthalen-2-ylamino)thiazole-4-carboxamide], the half-maximal inhibitory concentration (IC50) amounted to 5.5 nM.

Consider `NC(=O)c1nc(Nc2ccc3ccccc3c2)sc1NC(=O)c1ccc(CN2CCC(N)CC2)cc1` [Example 222, 5-{4-[(4-aminopiperidin-1-yl)methyl]benzamido}-2-(naphthalen-2-ylamino)thiazole-4-carboxamide], for which the 50% inhibitory concentration (IC50) was found to be 1.3 nM.

Consider `NC(=O)c1nc(Nc2ccc3ccccc3c2)sc1NC(=O)C1CC1` [Example 93, 5-(cyclopropanecarboxamido)-2-(naphthalen-2-yl-amino)thiazole-4-carboxamide], for which the IC50 amounted to 15 nM.

With `CN1CCN(C/C=C/C(=O)Nc2sc(Nc3ccc4ccccc4c3)nc2C(N)=O)CC1` [Example 174, (E)-5-(4-(4-methylpiperazin-1-yl)but-2-enamido)-2-(naphthalen-2-ylamino)thiazole-4-carboxamide], the IC50 is 16 nM.

With `NC(=O)c1nc(Nc2ccc3ccccc3c2)sc1NC(=O)C#CCCCn1cncn1` [Example 233, 5-[6-(1H-1,2,4-triazol-1-yl)hex-2-ynamido]-2-(naphthalen-2-ylamino)thiazole-4-carboxamide], the IC50 stood at 10.7 nM.

For `Cc1noc(Cc2ccc(C(=O)Nc3sc(Nc4ccc5ccccc5c4)nc3C(N)=O)cc2)n1` [Example 256, 5-{4-[(3-methyl-1,2,4-oxadiazol-5-yl)methyl]benzamido}-2-(naphthalen-2-ylamino)thiazole-4-carboxamide], the IC50 is 18.5 nM.

Turning to `CC(C)=CC(=O)Nc1sc(Nc2ccc3cc(CO)ccc3c2)nc1C(N)=O` [Example 139, 2-{[6-(hydroxymethyl)naphthalen-2-yl]amino}-5-(3-methylbut-2-enamido)thiazole-4-carboxamide], the 50% inhibitory concentration (IC50) stood at 1.6 nM.

For `NC(=O)c1nc(Nc2ccc3ccccc3c2)sc1NC(=O)c1ccc[nH]1` [Example 33, 2-(naphthalen-2-ylamino)-5-(1H-pyrrole-2-carbox-amido)thiazole-4-carboxamide], the IC50 was found to be 7.5 nM.

`NC(=O)c1nc(Nc2ccc3ccccc3c2)sc1NC(=O)c1ccc(CN2CCC(O)CC2)cc1` [Example 173, 5-{4-[(4-hydroxypiperidin-1-yl)methyl]benzamido}-2-(naphthalen-2-ylamino)thiazole-4-carbox-amide]: the IC50 was 3.4 nM.

Regarding `Cc1ccc(C(=O)Nc2sc(Nc3ccc4ccccc4c3)nc2C(N)=O)cc1N` [Example 9, 5-(3-amino-4-methylbenzamido)-2-(naphthalen-2-ylamino)thiazole-4-carboxamide], the IC50 was determined as 27.2 nM.

As to `Cc1nnc(Cc2ccc(C(=O)Nc3sc(Nc4ccc5ccccc5c4)nc3C(N)=O)cc2)o1` [Example 257, 5-{4-[(5-methyl-1,3,4-oxadiazol-2-yl)methyl]benzamido}-2-(naphthalen-2-ylamino)thiazole-4-carboxamide], the half-maximal inhibitory concentration (IC50) is 6.2 nM.

As for `NC(=O)c1nc(Nc2ccc3ncccc3c2)sc1NC(=O)c1ccc(Cn2ccnc2)cc1` [Example 250, 5-{4-[(1H-imidazol-1-yl)methyl]benzamido}-2-(quinolin-6-ylamino)thiazole-4-carboxamide], the IC50 was 3 nM.

For the compound `NC(=O)c1nc(Nc2ccc3cc(CO)ccc3c2)sc1NC(=O)C1CC1` [Example 138, 5-(cyclopropanecarboxamido)-2-{[6-(hydroxy-methyl)naphthalen-2-yl]amino}thiazole-4-carbox-amide], the half-maximal inhibitory concentration (IC50) was determined as 5.8 nM.

In the case of `CN(CCO)c1ccc(C(=O)Nc2sc(Nc3ccc4ccccc4c3)nc2C(N)=O)cc1` [Example 29, 5-{4-[(2-hydroxyethyl)methylamino]benzamido}-2-(naphthalen-2-ylamino)thiazole-4-carboxamide], the 50% inhibitory concentration (IC50) was 27.4 nM.
